What is called IC50 is the concentration that gives 50% inhibition.

SMILES strings stand for the structures. Some results are limits rather than exact numbers.

For test [1], the target named is T1, Serine/threonine-protein kinase BRSK2 (Homo sapiens) (UniProt Q8IWQ3).
T1 sequence (whole entry): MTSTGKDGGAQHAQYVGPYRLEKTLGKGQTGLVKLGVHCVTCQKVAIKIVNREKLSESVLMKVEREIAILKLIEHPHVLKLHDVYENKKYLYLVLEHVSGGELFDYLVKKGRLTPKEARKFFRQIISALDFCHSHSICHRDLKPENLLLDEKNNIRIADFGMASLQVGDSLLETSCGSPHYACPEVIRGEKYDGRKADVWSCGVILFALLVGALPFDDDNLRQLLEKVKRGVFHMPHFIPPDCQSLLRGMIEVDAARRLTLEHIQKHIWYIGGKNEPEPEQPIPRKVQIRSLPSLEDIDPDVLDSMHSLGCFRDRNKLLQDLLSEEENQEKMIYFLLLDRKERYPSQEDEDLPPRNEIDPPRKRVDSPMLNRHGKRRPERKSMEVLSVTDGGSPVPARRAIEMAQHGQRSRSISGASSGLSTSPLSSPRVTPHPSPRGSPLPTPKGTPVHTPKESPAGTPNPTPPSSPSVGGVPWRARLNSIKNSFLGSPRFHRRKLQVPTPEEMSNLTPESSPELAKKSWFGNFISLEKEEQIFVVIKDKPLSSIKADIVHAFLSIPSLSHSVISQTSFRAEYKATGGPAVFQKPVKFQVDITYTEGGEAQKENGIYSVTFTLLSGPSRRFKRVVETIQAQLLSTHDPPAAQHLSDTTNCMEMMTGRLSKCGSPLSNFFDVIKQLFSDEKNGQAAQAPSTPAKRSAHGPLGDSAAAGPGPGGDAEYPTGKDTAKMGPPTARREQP
Briefly: Selectivity interaction (KinomeScan (DiscoverX)) EUB0001619a BRSK2. Particulars: at 1 µM.

For test [2], the target named is Wee1-like protein kinase (Homo sapiens) (UniProt P30291). The test is described as follows: Selectivity interaction (KinomeScan (DiscoverX)) EUB0001619a WEE1. Particulars: at 1 µM.
Chain of Wee1-like protein kinase (Homo sapiens) (P30291 whole entry, looked up): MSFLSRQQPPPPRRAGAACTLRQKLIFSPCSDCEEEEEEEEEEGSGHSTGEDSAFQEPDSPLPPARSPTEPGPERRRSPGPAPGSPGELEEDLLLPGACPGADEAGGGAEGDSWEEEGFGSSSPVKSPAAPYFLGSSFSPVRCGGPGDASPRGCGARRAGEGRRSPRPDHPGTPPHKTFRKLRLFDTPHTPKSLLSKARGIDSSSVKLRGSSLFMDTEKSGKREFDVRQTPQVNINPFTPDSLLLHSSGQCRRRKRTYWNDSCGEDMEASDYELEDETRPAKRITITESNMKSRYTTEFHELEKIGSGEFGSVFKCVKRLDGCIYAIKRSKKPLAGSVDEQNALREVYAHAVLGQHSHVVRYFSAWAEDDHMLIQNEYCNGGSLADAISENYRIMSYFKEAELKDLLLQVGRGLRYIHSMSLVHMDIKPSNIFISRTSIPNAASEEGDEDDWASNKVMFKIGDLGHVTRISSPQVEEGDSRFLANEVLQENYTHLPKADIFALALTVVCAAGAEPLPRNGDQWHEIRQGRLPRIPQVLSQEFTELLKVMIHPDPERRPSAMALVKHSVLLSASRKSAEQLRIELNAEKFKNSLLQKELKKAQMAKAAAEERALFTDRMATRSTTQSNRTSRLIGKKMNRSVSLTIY
For test [3], the target named is Sodium-dependent serotonin transporter (Homo sapiens, UniProt P31645). The test is described as follows: Selectivity interaction (Eurofins CEREP Diversity Profile (receptors and ion channels)) EUB0000279b SLC6A4. Particulars: at 10 µM.
Chain of Sodium-dependent serotonin transporter (P31645 whole entry, looked up): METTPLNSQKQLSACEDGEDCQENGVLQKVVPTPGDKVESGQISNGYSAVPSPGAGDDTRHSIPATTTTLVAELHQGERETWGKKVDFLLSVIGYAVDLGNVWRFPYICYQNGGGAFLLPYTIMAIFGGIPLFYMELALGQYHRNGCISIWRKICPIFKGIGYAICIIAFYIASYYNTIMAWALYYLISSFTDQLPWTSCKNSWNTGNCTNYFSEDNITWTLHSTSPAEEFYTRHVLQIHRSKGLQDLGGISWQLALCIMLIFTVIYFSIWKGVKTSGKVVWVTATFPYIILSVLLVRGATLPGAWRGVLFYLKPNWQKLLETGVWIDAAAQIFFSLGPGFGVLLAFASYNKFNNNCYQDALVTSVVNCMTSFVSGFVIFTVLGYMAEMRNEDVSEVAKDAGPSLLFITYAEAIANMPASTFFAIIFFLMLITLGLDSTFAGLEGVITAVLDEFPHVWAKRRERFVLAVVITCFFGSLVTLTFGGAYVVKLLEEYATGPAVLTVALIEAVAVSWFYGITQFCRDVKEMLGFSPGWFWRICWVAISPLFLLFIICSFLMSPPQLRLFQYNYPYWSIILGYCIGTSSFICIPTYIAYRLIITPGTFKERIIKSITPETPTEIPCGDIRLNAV
Test [4] deals with Myosin-IIIa (Homo sapiens) (UniProt Q8NEV4). Briefly: Selectivity interaction (KinomeScan (DiscoverX)) EUB0000695a MYO3A. Particulars: at 100 nM.
Chain of Myosin-IIIa (Homo sapiens) (Q8NEV4 whole entry): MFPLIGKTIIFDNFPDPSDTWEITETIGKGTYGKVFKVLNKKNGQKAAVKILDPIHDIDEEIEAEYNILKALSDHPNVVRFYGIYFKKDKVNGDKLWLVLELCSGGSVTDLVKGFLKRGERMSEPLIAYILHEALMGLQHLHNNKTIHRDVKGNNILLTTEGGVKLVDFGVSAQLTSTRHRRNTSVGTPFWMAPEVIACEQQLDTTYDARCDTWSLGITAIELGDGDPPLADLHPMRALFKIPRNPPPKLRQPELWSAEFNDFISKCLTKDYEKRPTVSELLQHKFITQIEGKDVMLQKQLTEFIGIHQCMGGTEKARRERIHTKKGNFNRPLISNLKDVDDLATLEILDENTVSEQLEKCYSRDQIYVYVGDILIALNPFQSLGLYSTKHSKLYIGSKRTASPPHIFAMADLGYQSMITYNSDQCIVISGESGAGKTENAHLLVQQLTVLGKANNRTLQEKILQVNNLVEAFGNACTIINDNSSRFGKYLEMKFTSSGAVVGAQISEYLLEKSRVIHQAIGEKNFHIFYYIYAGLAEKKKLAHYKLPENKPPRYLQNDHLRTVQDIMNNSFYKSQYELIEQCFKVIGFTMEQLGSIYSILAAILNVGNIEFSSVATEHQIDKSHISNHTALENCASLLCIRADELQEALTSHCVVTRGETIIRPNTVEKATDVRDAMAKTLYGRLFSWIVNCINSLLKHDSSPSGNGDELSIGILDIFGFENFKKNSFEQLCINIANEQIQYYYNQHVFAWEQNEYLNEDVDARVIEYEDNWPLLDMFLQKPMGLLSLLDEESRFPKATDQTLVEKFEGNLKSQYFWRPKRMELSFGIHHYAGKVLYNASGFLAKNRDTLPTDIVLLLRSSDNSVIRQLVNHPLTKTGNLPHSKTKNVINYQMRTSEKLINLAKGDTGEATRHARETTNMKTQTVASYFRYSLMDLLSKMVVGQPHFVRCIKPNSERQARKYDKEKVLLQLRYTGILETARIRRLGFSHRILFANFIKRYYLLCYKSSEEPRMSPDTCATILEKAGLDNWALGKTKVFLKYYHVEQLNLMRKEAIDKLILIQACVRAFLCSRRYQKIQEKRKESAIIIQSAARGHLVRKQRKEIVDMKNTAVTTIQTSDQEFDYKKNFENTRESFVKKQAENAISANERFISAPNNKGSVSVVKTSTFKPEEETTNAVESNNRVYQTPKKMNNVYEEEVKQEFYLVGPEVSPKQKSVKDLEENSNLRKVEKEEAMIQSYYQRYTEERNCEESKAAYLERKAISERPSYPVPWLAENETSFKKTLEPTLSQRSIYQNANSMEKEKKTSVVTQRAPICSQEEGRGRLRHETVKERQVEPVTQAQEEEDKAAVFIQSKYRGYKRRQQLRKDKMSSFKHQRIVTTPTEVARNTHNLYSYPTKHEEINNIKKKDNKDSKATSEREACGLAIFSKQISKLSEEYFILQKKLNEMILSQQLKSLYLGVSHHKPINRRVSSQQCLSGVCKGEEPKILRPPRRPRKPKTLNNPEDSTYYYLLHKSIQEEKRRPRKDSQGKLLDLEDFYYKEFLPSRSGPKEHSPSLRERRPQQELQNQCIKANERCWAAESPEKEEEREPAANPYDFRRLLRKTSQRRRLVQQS
The target of test [5] is Receptor-interacting serine/threonine-protein kinase 3 (Homo sapiens) (UniProt Q9Y572). The test is described as follows: Selectivity interaction (ActivX KiNativ screen (kinase selectivity in THP-1 cell lysates)) EUB0000639a RIPK3. It counts as subcellular. Particulars: lysate.
Chain of Receptor-interacting serine/threonine-protein kinase 3 (Homo sapiens) (Q9Y572 whole entry, looked up): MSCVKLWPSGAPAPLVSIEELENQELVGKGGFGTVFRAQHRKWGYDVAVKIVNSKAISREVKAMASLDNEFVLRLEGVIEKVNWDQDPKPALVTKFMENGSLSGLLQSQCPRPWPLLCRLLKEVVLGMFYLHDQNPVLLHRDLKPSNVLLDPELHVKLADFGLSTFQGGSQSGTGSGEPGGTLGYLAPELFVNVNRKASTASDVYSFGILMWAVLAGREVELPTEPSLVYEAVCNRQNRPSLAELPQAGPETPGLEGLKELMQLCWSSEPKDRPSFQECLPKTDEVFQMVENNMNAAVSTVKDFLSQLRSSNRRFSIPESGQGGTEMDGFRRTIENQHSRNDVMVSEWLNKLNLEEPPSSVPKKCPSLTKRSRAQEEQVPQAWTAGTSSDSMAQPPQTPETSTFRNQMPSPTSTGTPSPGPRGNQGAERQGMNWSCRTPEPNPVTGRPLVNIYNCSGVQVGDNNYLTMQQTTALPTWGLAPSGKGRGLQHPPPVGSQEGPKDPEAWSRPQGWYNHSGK
Test [6] has as its target Serine/threonine-protein kinase 38-like (Homo sapiens) (UniProt Q9Y2H1). The test is described as follows: Selectivity interaction (ActivX KiNativ screen (kinase selectivity in THP-1 cell lysates)) EUB0000639a STK38L. It counts as subcellular. Particulars: lysate, at 5 µM.
For test [7], the target named is Mitogen-activated protein kinase 8 (Homo sapiens, UniProt P45983). Briefly: Selectivity interaction (Enzymatic assay) EUB0001199aCl MAPK8.
Chain of Mitogen-activated protein kinase 8 (P45983 whole entry): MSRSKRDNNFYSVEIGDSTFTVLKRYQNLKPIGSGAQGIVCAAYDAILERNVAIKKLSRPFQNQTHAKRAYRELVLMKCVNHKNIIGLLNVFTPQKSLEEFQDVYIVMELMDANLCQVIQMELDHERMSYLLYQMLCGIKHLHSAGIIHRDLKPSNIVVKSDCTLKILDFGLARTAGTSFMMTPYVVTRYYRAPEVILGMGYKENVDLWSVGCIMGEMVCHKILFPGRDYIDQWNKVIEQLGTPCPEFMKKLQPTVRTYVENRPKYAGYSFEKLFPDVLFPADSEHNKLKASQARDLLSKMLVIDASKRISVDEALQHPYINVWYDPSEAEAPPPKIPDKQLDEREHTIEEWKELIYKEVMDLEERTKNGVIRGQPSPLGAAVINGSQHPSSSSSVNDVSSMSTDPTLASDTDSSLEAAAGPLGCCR
For test [8], the target named is Serine/threonine-protein kinase pim-3 (Homo sapiens) (UniProt Q86V86). Briefly: Selectivity interaction (ProQinase) EUB0000171b PIM3.
Test [9] deals with 5-hydroxytryptamine receptor 2A (Homo sapiens, UniProt P28223). Briefly: Selectivity interaction (Serotonin 5HT2A Calcium flux assay, agonist and antagonist mode ) EUB0000877a HTR2A.
Test [10] addresses Ephrin type-A receptor 2 (Homo sapiens) (UniProt P29317). The test is described as follows: Selectivity interaction (KinomeScan (DiscoverX)) EUB0000618a EPHA2. Particulars: at 10 µM.
Test [11] concerns the target T2, Ephrin type-B receptor 4 (Homo sapiens) (UniProt P54760).
T2 sequence (whole entry): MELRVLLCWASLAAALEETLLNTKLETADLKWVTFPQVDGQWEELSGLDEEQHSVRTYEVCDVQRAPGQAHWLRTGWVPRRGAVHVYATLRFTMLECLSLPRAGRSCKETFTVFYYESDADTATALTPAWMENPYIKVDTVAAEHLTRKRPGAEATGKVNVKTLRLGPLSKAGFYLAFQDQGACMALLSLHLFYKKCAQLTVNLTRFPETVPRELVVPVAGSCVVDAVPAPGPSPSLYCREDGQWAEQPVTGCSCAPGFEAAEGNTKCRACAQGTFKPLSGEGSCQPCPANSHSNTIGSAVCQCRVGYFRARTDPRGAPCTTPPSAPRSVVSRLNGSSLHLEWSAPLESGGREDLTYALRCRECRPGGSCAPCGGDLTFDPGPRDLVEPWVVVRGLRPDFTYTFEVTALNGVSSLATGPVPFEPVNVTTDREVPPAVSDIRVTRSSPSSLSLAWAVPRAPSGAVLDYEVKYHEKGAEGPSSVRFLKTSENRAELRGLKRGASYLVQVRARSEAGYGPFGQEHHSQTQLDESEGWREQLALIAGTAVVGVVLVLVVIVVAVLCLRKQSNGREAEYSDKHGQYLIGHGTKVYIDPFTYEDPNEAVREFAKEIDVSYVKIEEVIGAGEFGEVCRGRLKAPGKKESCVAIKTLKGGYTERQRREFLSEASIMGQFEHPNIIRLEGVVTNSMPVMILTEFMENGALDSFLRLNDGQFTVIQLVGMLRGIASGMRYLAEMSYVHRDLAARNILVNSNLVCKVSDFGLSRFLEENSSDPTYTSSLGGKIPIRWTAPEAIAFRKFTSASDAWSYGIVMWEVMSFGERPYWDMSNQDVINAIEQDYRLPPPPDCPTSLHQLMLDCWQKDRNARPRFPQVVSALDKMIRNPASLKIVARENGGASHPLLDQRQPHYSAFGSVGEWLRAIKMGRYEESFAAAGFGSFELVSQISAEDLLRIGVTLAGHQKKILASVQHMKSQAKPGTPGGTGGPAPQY
Briefly: Selectivity interaction (KinomeScan (DiscoverX)) EUB0001079a EPHB4. Particulars: at 1 µM.

Chain of Serine/threonine-protein kinase 38-like (Homo sapiens) (Q9Y2H1 2-464 limits assumed): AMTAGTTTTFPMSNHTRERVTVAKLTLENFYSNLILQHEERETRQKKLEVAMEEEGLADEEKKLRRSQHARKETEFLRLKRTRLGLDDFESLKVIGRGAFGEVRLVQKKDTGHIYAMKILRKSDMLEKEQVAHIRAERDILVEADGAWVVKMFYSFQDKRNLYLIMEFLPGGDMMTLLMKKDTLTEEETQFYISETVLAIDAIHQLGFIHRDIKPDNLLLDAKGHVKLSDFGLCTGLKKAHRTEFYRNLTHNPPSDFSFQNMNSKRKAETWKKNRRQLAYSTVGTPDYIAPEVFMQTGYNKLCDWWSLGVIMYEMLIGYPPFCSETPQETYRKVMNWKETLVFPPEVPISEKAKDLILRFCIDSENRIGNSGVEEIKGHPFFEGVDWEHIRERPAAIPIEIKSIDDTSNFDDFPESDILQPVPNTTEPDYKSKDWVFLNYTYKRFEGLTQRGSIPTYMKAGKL

As to `N#Cc1cccc(-c2c[nH]c3ncnc(N4CCOCC4)c23)c1`, the % of control turned out to be 85% in [1] and 100% in test [2].
Compound `CC(=O)c1cc(-c2ccccc2OCC2CC2)c2ncccn12` showed a % of control in test [3] of 108%.
For `Cc1cc(F)c(C(=O)Nc2cccc(-c3nncn3C(C)C)n2)cc1-n1cnc(C2CC2)c1`, in test [4], the % of control stood at 100%.
In the case of `CC[C@@H]1[C@H](F)C(=O)N[C@@H]1COc1nccc2cc(C(N)=O)c(OC)cc12` [ZIMLOVISERTIB], the % of inhibition was 3% in [5] (at 0.01 µM); -0.8% in test [5] (at 0.04 µM); -4.3% in test [5] (at 0.2 µM); 8.9% in test [5] (at 1 µM); -8.6% in test [5] (at 5 µM); 77.4% in test [6].
In test [7], `CN1Cc2nccc(-c3cn(C)nc3-c3ccc(F)cc3)c2C1=O` yielded an IC50 of 1020 nM.
In the case of `C=CC(=O)Nc1cccc(C(=O)Nc2ccc(Nc3cc(-c4[nH]c(SC)nc4C)ccn3)cc2)c1`, the % of control came out at 93% in test [8] (at 1 µM) and 82% in test [8] (at 5 µM).
On to `CCC(=O)N1CC[C@H](Nc2ncnc3c2CN(c2cnc(OC)c(C(F)(F)F)c2)CC3)C1` [LENIOLISIB], for which the IC50 in [9] was above 30 µM.
In [10], `O[C@H]1CC[C@H](Nc2ncc3nc(Nc4c(F)cc(F)cc4F)n([C@H]4CCOC4)c3n2)CC1` gave a % of control of 99%.
`Nc1cnc(N2CCc3cc(S(=O)(=O)Nc4c(F)cc(Cl)cc4F)cc(N4CCCC4=O)c32)nc1` [TP-020n]: the % of control in [11] turned out to be 100%.
